Reference: patent US20230406855A1, “N-1 BRANCHED IMIDAZOQUINOLINES, CONJUGATES THEREOF, AND METHODS” (3M INNOVATIVE PROPERTIES COMPANY, priority 2020, published 2023)

Legend:
[1] = tested on: LHRH receptor expressing tumor cells; conditions: free Dox relative to LHRH-conjugated Dox; cited from earlier work
[2] = tested on: Human peripheral blood mononuclear cells (PBMC); experiment: Cytokine induction in human cells (PBMC), Ella Simple Plex ELISA; format: cell-based; conditions: 21-24 hours, lowest concentration giving cytokine at least 2x negative control, tested 0.01-30 micromolar
Description: Whole blood was obtained from healthy human donors and collected by venipuncture into vacutainer tubes or syringes containing EDTA. Human peripheral blood mononuclear cells (PBMC) were purified from the whole blood by density gradient centrifugation. Histopaque 1077 (15 mL, Sigma, St. Louis, MO) was transferred to 6×50 mL sterile polypropylene conical tubes. The Histopaque was overlayed with 15-25 mL of blood diluted 1:2 in Hank's Balanced Salts Solution (HBSS) (Gibco, Life Technologies, Grand Island, NY). The tubes were then centrifuged at 1370 rpm for 30 minutes at 20° C., with no brake (400×g, GH 3.8 A Rotor).
The interface (buffy coat) containing the PBMC was collected and placed in a new sterile 50 mL conical polypropylene centrifuge tube. The PBMC were mixed with an equal volume of HBSS (about 20 mL from the interface and about 20 mL of HBSS), and then centrifuged at 1090 rpm, 10 minutes, 20° C., with brake (270×g, GH 3.8 A Rotor). After completing centrifugation, the cells were resuspended in 2-3 mL ACK Red blood cell lysis buffer (ammonium chloride potassium solution, Gibco, Life Technologies) and incubated for 2-5 minutes at 20° C. Next, HBSS (40 mL) was added to the cells, and the sample was centrifuged at 270×g for 10 minutes at 20° C. The supernatant was decanted, and the cell pellet was resuspended in 5 mL AIM V Medium (Gibco, Life Technologies). Cell aggregates and debris were removed by filtering the cell solution through a BD Falcon 70 micron nylon cell strainer (BD Biosciences, San Jose, CA).
The number of viable cells was determined by counting with a Moxi Z instrument (ORFLO Technologies, Ketchum, ID) or by using a hemacytometer. For determining cell viability with a hemacytometer, the cells were diluted 1/10 in 0.4% trypan blue and HBSS (specifically, 50 microliter of trypan blue+40 microliter of HBSS+10 microliter of cell solution were added to a microfuge tube and mixed). Ten microliters of the diluted cells were then applied to the hemacytometer, and the number of viable PBMC were determined by microscopy.
The PBMC sample was then resuspended in 96-well plates at a concentration of 8×10^5 cells/well in 0.1 mL of AIM-V medium. Each compound was solubilized in dimethyl sulfoxide (DMSO) to create a 3 mM stock solution. The stock solution was then further diluted with AIM-V medium to prepare the serial dilutions. The diluted compound (100 microliters) was then transferred to the PBMCs to produce testing sets with final compound concentrations of 30, 10, 3.3, 1.1, 0.37, 0.12, 0.04, 0.01 micromolar. The plates also had both positive and negative controls. The negative control wells contained only AIM-V medium with no example compound. The positive control wells contained a control set of imiquimod serially diluted to concentrations of 30, 10, 3.3, 1.1, 0.37, 0.12, 0.04, 0.01 micromolar. The concentrations used in the control set were selected to match the concentrations used in the testing set. The plates were then cultured at 37° C./5% CO2 for 21-24 hours. Cell-free supernatants were harvested by centrifuging the 96-well plates at 2100 rpm, 23° C. for 10 minutes. Approximately 160 microliters of the supernatant was then stored in a NUNC 96-well plate, covered with the compression cap and stored at −80° C. until the cytokine analysis was done.
Cytokine levels (human IFN-alpha multisubtype, human IFN-gamma, and human TNF-alpha) were measured in picograms/mL by Ella Simple Plex ELISA (ProteinSimple, San Jose, CA) according to the manufacturer's instructions.
Specifically, the minimum effective concentration of each compound (micromolar) was determined as the lowest concentration of the compound that induced a measured cytokine response at a level ([…]) that was at least 2× greater than that observed with the negative control wells.

human TLR7 = molecular target: T1, human TLR7 (Homo sapiens, UniProt Q9NYK1); experiment: TLR activation and specificity, HEK-BLUE-hTLR7 SEAP reporter cells; format: cell-based; conditions: 16-20 hours, lowest concentration giving SEAP response at least 2x vehicle control, tested 0.01-30 micromolar
T1 construct: host or cells: HEK293 (HEK-BLUE-hTLR7)
T1 sequence (Q9NYK1 27-1049): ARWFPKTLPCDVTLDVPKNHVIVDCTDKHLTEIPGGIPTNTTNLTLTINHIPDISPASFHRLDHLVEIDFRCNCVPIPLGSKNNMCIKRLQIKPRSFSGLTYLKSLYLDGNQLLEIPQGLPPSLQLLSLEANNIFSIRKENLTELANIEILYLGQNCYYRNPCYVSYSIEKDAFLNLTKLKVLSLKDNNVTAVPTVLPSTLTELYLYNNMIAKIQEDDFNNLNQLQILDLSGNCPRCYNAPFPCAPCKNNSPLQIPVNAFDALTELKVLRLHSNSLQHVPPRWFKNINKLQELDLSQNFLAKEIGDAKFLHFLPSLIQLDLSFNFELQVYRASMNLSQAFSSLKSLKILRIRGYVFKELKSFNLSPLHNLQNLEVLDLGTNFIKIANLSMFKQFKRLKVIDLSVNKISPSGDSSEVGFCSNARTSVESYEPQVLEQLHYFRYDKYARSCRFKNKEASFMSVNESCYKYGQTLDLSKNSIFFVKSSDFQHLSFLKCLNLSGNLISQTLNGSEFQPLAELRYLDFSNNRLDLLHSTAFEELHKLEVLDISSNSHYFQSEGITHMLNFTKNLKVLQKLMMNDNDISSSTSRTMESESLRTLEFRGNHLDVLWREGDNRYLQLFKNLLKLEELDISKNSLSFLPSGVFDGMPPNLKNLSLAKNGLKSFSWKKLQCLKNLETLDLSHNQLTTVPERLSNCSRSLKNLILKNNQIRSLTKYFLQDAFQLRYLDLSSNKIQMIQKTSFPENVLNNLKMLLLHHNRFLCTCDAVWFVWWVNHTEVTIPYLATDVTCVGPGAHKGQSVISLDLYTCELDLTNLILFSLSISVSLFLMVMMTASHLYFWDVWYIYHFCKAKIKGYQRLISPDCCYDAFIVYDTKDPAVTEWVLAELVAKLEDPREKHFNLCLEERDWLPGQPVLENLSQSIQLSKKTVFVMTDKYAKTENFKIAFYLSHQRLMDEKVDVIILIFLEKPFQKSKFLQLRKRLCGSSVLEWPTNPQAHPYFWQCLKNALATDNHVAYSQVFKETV
Description: (§1) HEK-BLUE-hTLR7 or hTLR8 reporter cells were obtained from InvivoGen, San Diego, CA. According to the manufacturer's description, these reporter cells were prepared by co-transfection of HEK293 cells with an inducible secreted embryonic alkaline phosphatase (SEAP) reporter gene and either the human TLR7 or TLR8 gene. The SEAP reporter gene was placed under the control of an IFN-β minimal promoter fused to five NF-κB and AP-1-binding sites. In the presence of a TLR ligand, activation of NF-κB and AP-1 occurs, resulting in a corresponding increase in SEAP levels. […]
(§2) For each compound, hTLR7, hTLR8, and their respective null control HEK cells were screened. […] Cell culture supernatants containing the SEAP reporter were collected after an incubation period of 16-20 hours in a cell culture incubator (37° C. and 5% CO2), and either analyzed immediately or stored at −80° C. SEAP levels were measured using the colorimetric enzyme assay (QUANTI-BLUE (InvivoGen) according to manufacturer's instructions.
(§3) Specifically, the minimum effective concentration of each compound (micromolar) was determined as the lowest concentration of the compound that produced a SEAP expression response at least 2× greater than that observed with the vehicle control wells.

human TLR8 = molecular target: T2, human TLR8 (Homo sapiens, UniProt Q9NR97); experiment: TLR activation and specificity, HEK-BLUE-hTLR8 SEAP reporter cells; format: cell-based; conditions: 16-20 hours, lowest concentration giving SEAP response at least 2x vehicle control, tested 0.01-30 micromolar
T2 construct: host or cells: HEK293 (HEK-BLUE-hTLR8)
T2 sequence (Q9NR97 27-1041): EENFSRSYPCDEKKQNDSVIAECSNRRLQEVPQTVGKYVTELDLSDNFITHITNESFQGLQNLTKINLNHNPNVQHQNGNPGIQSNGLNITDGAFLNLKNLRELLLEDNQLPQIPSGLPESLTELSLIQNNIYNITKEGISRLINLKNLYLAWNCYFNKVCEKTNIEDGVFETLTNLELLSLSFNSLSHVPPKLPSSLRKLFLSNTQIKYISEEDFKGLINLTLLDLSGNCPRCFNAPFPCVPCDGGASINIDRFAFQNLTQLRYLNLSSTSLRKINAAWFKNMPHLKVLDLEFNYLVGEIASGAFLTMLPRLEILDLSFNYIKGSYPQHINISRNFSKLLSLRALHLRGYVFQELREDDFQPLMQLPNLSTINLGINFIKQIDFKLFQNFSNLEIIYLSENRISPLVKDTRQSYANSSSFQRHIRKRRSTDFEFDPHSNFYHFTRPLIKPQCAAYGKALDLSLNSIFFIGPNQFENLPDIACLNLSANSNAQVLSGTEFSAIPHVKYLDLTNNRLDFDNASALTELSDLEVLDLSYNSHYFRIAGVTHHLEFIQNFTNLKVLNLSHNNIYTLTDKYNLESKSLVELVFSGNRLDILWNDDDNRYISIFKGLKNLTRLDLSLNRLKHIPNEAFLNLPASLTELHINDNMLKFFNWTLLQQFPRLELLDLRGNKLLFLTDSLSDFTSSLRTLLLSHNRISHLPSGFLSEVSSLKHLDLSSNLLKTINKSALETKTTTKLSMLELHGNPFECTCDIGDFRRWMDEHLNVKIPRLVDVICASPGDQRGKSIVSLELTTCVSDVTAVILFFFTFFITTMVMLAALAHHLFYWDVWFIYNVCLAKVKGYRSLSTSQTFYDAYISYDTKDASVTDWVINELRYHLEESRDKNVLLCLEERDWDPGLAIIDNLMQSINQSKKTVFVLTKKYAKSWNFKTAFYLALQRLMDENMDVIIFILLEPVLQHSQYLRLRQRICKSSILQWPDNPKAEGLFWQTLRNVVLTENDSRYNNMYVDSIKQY
Description: as §1, §2, §3

MEC to Produce TLR Activation, TLR 7 (human TLR7) [µM] | MEC to Produce TLR Activation, TLR 8 (human TLR8) [µM] | Structure (SMILES) | amount of free Dox required for antitumor activity equal to the LHRH conjugate [1] | MEC to Induce Cytokine IFN-alpha [2] [µM] | MEC to Induce Cytokine IFN-gamma [2] [µM] | MEC to Induce Cytokine TNF-alpha [2] [µM]
 |  | C[C@@H]1C[C@H]2[C@@H]3CCC4=CC(=O)C=C[C@]4(C)C3=CC[C@]2(C)[C@H]1C(=O)CN1CCN(c2cc(N3CCCC3)nc(N3CCCC3)n2)CC1 [Dox] | approximately 200 times |  |  | 
≤0.01 | 10 | C#CCOc1ccc(C[C@@H](COCC)n2cnc3c(N)nc4ccccc4c32)cc1 [Example 1, (S)-1-(1-ethoxy-3-(4-(prop-2-yn-1-yloxy)phenyl)propan-2-yl)-1H-imidazo[4,5-c]quinolin-4-amine] |  | ≤0.01 | ≤0.01 | ≤0.01
≤0.01 | 3.3 | CCOC[C@H](Cc1ccc(OCc2cn(Cc3ccccc3)nn2)cc1)n1cnc2c(N)nc3ccccc3c21 [Example 2, (S)-1-(1-(4-((1-benzyl-1H-1,2,3-triazol-4-yl)methoxy)phenyl)-3-ethoxypropan-2-yl)-1H-imidazo[4,5-c]quinolin-4-amine] |  | ≤0.01 | ≤0.01 | ≤0.01
